Experimental data as given in EP4768032A1, “RAGE-TARGETED RNAI AGENT AND PHARMACEUTICAL USE THEREOF” (Tuojie Biotech (Shanghai) Co., Ltd., priority 2023, dated 2025).

What follows are substances tested on human RAGE (assay: psiCHECK on-target activity at 9 concentration points in HEK293A cells, dual-luciferase reporter (Example 8)). Settings: psiCHECK system, Table 9.
Assay type: cell-based
From the text: As used herein, the term "inhibit" is used interchangeably with "decrease", "silence", "down-regulate", "repress", and other similar terms, and includes any level of inhibition. Inhibition can be assessed in terms of a decrease in the absolute or relative level of one or more of these variables relative to a control level. The control level can be any type of control level used in the art, such as a pre-dose baseline level or a level determined from an untreated or control (e.g., buffer-only control or inert agent control) treated subject, cell, or sample. […] The inhibition rate of target gene expression can be measured using a Dual-Glo® Luciferase Assay System: the Firefly chemiluminescence value (Fir) and the Renilla chemiluminescence value (Ren) are each read, and the relative value Ratio = Ren/Fir is calculated. In the present disclosure, the ratio of the remaining mRNA expression level (or residual activity%) = Ratio (RNAi agent-treated group)/Ratio (RNAi agent-free control group), and the inhibition rate (%) = 100% - remaining mRNA expression level (%).
RNAi agents were subjected to an in vitro molecular-level simulation of on-target activity screening in HEK293A cells using 9 concentration gradients.
HEK293A cells were cultured at 37 °C with 5% CO2 in a DMEM high-glucose culture medium containing 10% fetal bovine serum. 24 h prior to transfection, the HEK293A cells were seeded into a 96-well plate at a density of 1 × 10^4 cells per well, with each well containing 100 µL of the culture medium.
The cells were co-transfected with the RNAi agents and corresponding plasmids using Lipofectamine2000 (ThermoFisher, 11668019) according to the instructions, with 0.3 µL of Lipofectamine2000 used per well. The amount of plasmids for transfection was 20 ng per well. For on-target sequence plasmids, a total of 9 concentration points were set for the RNAi agents; the highest concentration point final concentration was 20 nM, and a 3-fold serial dilution was performed to obtain 20.0000 nM, 6.6667 nM, 2.2222 nM, 0.7407 nM, 0.2469 nM, 0.0823 nM, 0.0274 nM, 0.0091 nM, and 0.0030 nM. 24 h after transfection, the on-target levels were determined using a Dual-Luciferase Reporter Assay System (Promega, E2940). Table 9. The IC50 activity of RNAi agents in a psiCHECK system

Substance	IC50 [nM]
TJR103633-TJ-16: RNAi agent containing targeting ligand I-14: SS strand SEQ ID NO: 21, AS strand SEQ ID NO: 47 (sense CUGUCAGCAUCAGCAUCAA; antisense UUGAUGCUGAUGCUGACAGCA; targeting ligand I-14 conjugated, modification pattern not given here)	0.343
TJR103634-TJ-16: RNAi agent containing targeting ligand I-14: SS strand SEQ ID NO: 22, AS strand SEQ ID NO: 48 (sense GACCAACUCUCUCCUGUAA; antisense UUACAGGAGAGAGUUGGUCUG; targeting ligand I-14 conjugated, modification pattern not given here)	0.378
TJR103635-TJ-16: RNAi agent containing targeting ligand I-14: SS strand SEQ ID NO: 23, AS strand SEQ ID NO: 49 (sense AGAGGAGGAGCGUGCAGAA; antisense UUCUGCACGCUCCUCCUCUUC; targeting ligand I-14 conjugated, modification pattern not given here)	0.636
TJR103636-TJ-16: RNAi agent containing targeting ligand I-14: SS strand SEQ ID NO: 24, AS strand SEQ ID NO: 50 (sense CAGUCGGAGCUAAUGGUGA; antisense UCACCAUUAGCUCCGACUGCA; targeting ligand I-14 conjugated, modification pattern not given here)	0.287
TJR103637-TJ-16: RNAi agent containing targeting ligand I-14: SS strand SEQ ID NO: 25, AS strand SEQ ID NO: 51 (sense CUUUUCUUUUUCCCUUGAA; antisense UUCAAGGGAAAAAGAAAAGGG; targeting ligand I-14 conjugated, modification pattern not given here)	0.83
TJR103638-TJ-16: RNAi agent containing targeting ligand I-14: SS strand SEQ ID NO: 26, AS strand SEQ ID NO: 52 (sense CCUUUUCUUUUUCCCUUGA; antisense UCAAGGGAAAAAGAAAAGGGA; targeting ligand I-14 conjugated, modification pattern not given here)	0.973
